Experimental data from patent publication US8859465B2, “Synergistic herbicidal composition containing penoxsulam and glufosinate-ammonium” (Dow AgroSciences LLC, priority 2011, dated 2014).

What was measured:
Assay type in all cases: in vivo
[1] = tested on: barnyardgrass (Echinochloa crus-galli, ECHCG); test: Postemergence herbicidal activity of mixtures under field conditions in wet-seeded rice, ECHCG
Experimental: (§1) Evaluation of Postemergence Herbicidal Activity of Mixtures under Field Conditions Methodology
(§2) Field trials were conducted in rice using standard herbicide small plot research methodology. Plot size was 2 square meters (m^2) using 1.6 meter (m) diameter rings placed into the rice paddy soil with capability for flooding to maintain good rice cultural practices and rice growing conditions. There were 3 replicates per treatment. Rice was Japonica type that was sown as wet-seeded rice (pre-germinated) into the saturated soil in the rings as per normal cultural practices. The rice crop was grown using normal cultural practices for fertilization, seeding, watering, flooding and maintenance to ensure good growth of the crop and the weeds under seeded rice conditions in Taiwan. Ring plot water conditions were maintained under saturated soil conditions after planting. Just prior to treatment application, any remaining plot water was drained to maintain saturated soil in ring plot. Treatments were applied by backpack using compressed air at 30 pounds per square inch (psi) using Flat Fan nozzles at a spray volume of 450 Liters/hectare (L/ha). Penoxsulam was applied as the Fencer® 25OD formulation. Glufosinate-ammonium was applied as the Basta® 135 SL formulation.
(§3) All treatments in the field trials were applied by spraying the treatments on the rice and weeds and evaluated at 7, 14, or 28 days after application (DAA). Commercially available products of penoxsulam (FENCER 25OD) and glufosinate-ammonium (BASTA 135 SL) were mixed in water and sprayed onto the rice and weeds with the appropriate formulated product amounts to treat 2 m^2 to achieve the desired application rates based on unit area of application (hectare).
(§4) The treated and control plots were rated blind at various intervals after application, with the last evaluation taken 28 days after application. Ratings were based on percent (%) visual weed control, where 0 corresponds to no control and 100 corresponds to complete control.
(§5) Colby's equation was used to determine the herbicidal effects expected from the mixtures (Colby, S. R. Calculation of the synergistic and antagonistic response of herbicide combinations. Weeds 1967 15, 20-22). Results are shown where P<0.05 according to Colby's method of analysis.
(§6) The following equation was used to calculate the expected activity of mixtures containing two active ingredients, A and B: Expected=A+B−(A×B/100)
(§7) A=observed efficacy of active ingredient A at the same concentration as used in the mixture;
(§8) B=observed efficacy of active ingredient B at the same concentration as used in the mixture.

[2] = tested on: smallflower umbrella sedge (Cyperus difformis, CYPDI); test: Postemergence herbicidal activity of mixtures under field conditions in wet-seeded rice, CYPDI; conditions: 14 DAA
Experimental: as §1, §2, §3, §4, §5, §6, §7, §8

[3] = tested on: monochoria (Monochoria vaginalis, MOOVA); test: Postemergence herbicidal activity of mixtures under field conditions in wet-seeded rice, MOOVA; conditions: 14 DAA
Experimental: as §1, §2, §3
The treated and control plots were rated blind at various intervals after application, with the last evaluation taken 28 days after application. Ratings were based on percent (%) visual weed control, where 0 corresponds to no control and 100 corresponds to complete control. […]

[4] = tested on: Japanese bulrush (Schoenoplectus juncoides, SCPJU); test: Postemergence herbicidal activity of mixtures under field conditions in wet-seeded rice, SCPJU
Experimental: as §1, §2, §3, §4, §5, §6, §7, §8

[5] = 28 DAA, glufosinate-ammonium 35 grams ai/ha
[6] = 28 DAA, glufosinate-ammonium 70 grams ai/ha
[7] = 28 DAA, glufosinate-ammonium 140 grams ai/ha
[8] = glufosinate-ammonium 70 grams ai/ha
[9] = 28 DAA, penoxsulam 5 grams ai/ha

2-amino-4-(hydroxymethylphosphinyl)butanoic acid [Glufosinate-ammonium]
ECHCG (% Control) Obs ([1]; 14 DAA, glufosinate-ammonium 35 grams ai/ha): 0%
ECHCG (% Control) Obs ([1]; 14 DAA, glufosinate-ammonium 70 grams ai/ha): 0%
ECHCG (% Control) Obs ([1]; 14 DAA, glufosinate-ammonium 140 grams ai/ha): 27%
ECHCG (% Control) Obs [1, 5]: 0%
ECHCG (% Control) Obs [1, 6]: 0%
ECHCG (% Control) Obs [1, 7]: 0%
ECHCG (% Control) Obs ([1]; 28 DAA, glufosinate-ammonium 280 grams ai/ha): 13%
CYPDI (% Control) Obs ([2]; glufosinate-ammonium 35 grams ai/ha): 0%
CYPDI (% Control) Obs [2, 8]: 0%
CYPDI (% Control) Obs ([2]; glufosinate-ammonium 140 grams ai/ha): 0%
MOOVA (% Control) Obs ([3]; glufosinate-ammonium 18 grams ai/ha): 0%
MOOVA (% Control) Obs [3, 8]: 0%
SCPJU (% Control) Obs ([4]; 7 DAA, glufosinate-ammonium 18 grams ai/ha): 0%
SCPJU (% Control) Obs ([4]; 7 DAA, glufosinate-ammonium 35 grams ai/ha): 0%
SCPJU (% Control) Obs ([4]; 7 DAA, glufosinate-ammonium 70 grams ai/ha): 0%
SCPJU (% Control) Obs ([4]; 7 DAA, glufosinate-ammonium 140 grams ai/ha): 0%
SCPJU (% Control) Obs ([4]; 28 DAA, glufosinate-ammonium 18 grams ai/ha): 0%
SCPJU (% Control) Obs [4, 5]: 0%
SCPJU (% Control) Obs [4, 6]: 0%
SCPJU (% Control) Obs [4, 7]: 0%

COc1cnc(OC)n2nc(NS(=O)(=O)c3c(OCC(F)F)cccc3C(F)(F)F)nc12 [Penoxsulam, 2-(2,2-difluoroethoxy)-N-(5,8-dimethoxy-[1,2,4]triazolo[1,5-c]pyrimidin-2-yl)-6-(trifluoromethyl)benzenesulfonamide]
ECHCG (% Control) Obs ([1]; 14 DAA, penoxsulam 5 grams ai/ha): 53%
ECHCG (% Control) Obs ([1]; 14 DAA, penoxsulam 10 grams ai/ha): 62%
ECHCG (% Control) Obs [1, 9]: 30%
ECHCG (% Control) Obs ([1]; 28 DAA, penoxsulam 10 grams ai/ha): 42%
ECHCG (% Control) Obs ([1]; 28 DAA, penoxsulam 20 grams ai/ha): 87%
CYPDI (% Control) Obs ([2]; penoxsulam 5 grams ai/ha): 73%
MOOVA (% Control) Obs ([3]; penoxsulam 5 grams ai/ha): 37%
SCPJU (% Control) Obs ([4]; 7 DAA, penoxsulam 5 grams ai/ha): 40%
SCPJU (% Control) Obs ([4]; 7 DAA, penoxsulam 20 grams ai/ha): 92%
SCPJU (% Control) Obs [4, 9]: 0%
